System: 282377-053-R-J1-PDC complex spheroid viability
Test: Anticancer human tumor 282377-053-R-J1-PDC patient-derived colon adenocarcinoma cell line growth inhibition [RAS]
Settings: for IC50: curve of first compound; for viability, T/C: stronger effect = lower value
Outline: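 Agents were tested in combination matrices in half-log decrements from a top concentration at or near clinical Cmax (10 microM if undetermined). Targets were multi-cell spheroids of tumour lines plus HUVEC and MSC stromal cells.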

[1] = second compound 0.000949 µM, first compound 0.0316 µM
[2] = second compound 0.000949 µM, first compound 0.1 µM
[3] = second compound 0.000949 µM, first compound 0.316 µM
[4] = second compound 0.000949 µM, first compound 1 µM
[5] = second compound 0.000949 µM, first compound 3.16 µM
[6] = second compound 0.000949 µM, first compound 10 µM
[7] = second compound 0.003 µM, first compound 0.0316 µM
[8] = second compound 0.003 µM, first compound 0.1 µM
[9] = second compound 0.003 µM, first compound 0.316 µM
[10] = second compound 0.003 µM, first compound 1 µM
[11] = second compound 0.003 µM, first compound 3.16 µM
[12] = second compound 0.003 µM, first compound 10 µM
[13] = second compound 0.00949 µM, first compound 0.0316 µM
[14] = second compound 0.00949 µM, first compound 0.1 µM
[15] = second compound 0.00949 µM, first compound 0.316 µM
[16] = second compound 0.00949 µM, first compound 1 µM
[17] = second compound 0.00949 µM, first compound 3.16 µM
[18] = second compound 0.00949 µM, first compound 10 µM
[19] = second compound 0.03 µM, first compound 0.0316 µM
[20] = second compound 0.03 µM, first compound 0.1 µM
[21] = second compound 0.03 µM, first compound 0.316 µM
[22] = second compound 0.03 µM, first compound 1 µM
[23] = second compound 0.03 µM, first compound 3.16 µM
[24] = second compound 0.03 µM, first compound 10 µM
[25] = second compound 0.0949 µM, first compound 0.0316 µM
[26] = second compound 0.0949 µM, first compound 0.1 µM
[27] = second compound 0.0949 µM, first compound 0.316 µM
[28] = second compound 0.0949 µM, first compound 1 µM
[29] = second compound 0.0949 µM, first compound 3.16 µM
[30] = second compound 0.0949 µM, first compound 10 µM
[31] = second compound 0.3 µM, first compound 0.0316 µM
[32] = second compound 0.3 µM, first compound 0.1 µM
[33] = second compound 0.3 µM, first compound 0.316 µM
[34] = second compound 0.3 µM, first compound 1 µM
[35] = second compound 0.3 µM, first compound 3.16 µM
[36] = second compound 0.3 µM, first compound 10 µM
[37] = second compound 0.000949 µM, first compound 0.00316 µM
[38] = second compound 0.000949 µM, first compound 0.01 µM
[39] = second compound 0.003 µM, first compound 0.00316 µM
[40] = second compound 0.003 µM, first compound 0.01 µM
[41] = second compound 0.00949 µM, first compound 0.00316 µM
[42] = second compound 0.00949 µM, first compound 0.01 µM
[43] = second compound 0.03 µM, first compound 0.00316 µM
[44] = second compound 0.03 µM, first compound 0.01 µM
[45] = second compound 0.0949 µM, first compound 0.00316 µM
[46] = second compound 0.0949 µM, first compound 0.01 µM
[47] = second compound 0.3 µM, first compound 0.00316 µM
[48] = second compound 0.3 µM, first compound 0.01 µM
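Also: spheroids exposed to agents for seven days before readout.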
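For viability, T/C in this document: luminescence viability as percent of DMSO vehicle control wells.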

## CC(C)NCC(C(=O)N1CCN(c2ncnc3c2C(C)CC3O)CC1)c1ccc(Cl)cc1 (stereo not drawn) + CCn1c(-c2cccnc2C(C)OC)c2c3cc(ccc31)N1CCOC(CC(NC(=O)C(C(C)C)N(C)C(=O)C3(F)CCN(C(=O)C#CC(C)(C)N(C)C)CC3)C(=O)N3CCCC(N3)C(=O)OCC(C)(C)C2)C1
Second compound 0.000949 µM
  IC50: > 10000 nM
Second compound 0.003 µM
  IC50: > 10000 nM
Second compound 0.00949 µM
  IC50: > 10000 nM
Second compound 0.03 µM
  IC50: > 10000 nM
Second compound 0.0949 µM
  IC50: > 10000 nM
Second compound 0.3 µM
  IC50: > 10000 nM
[1]
  viability, T/C: 96.4%
[2]
  viability, T/C: 99.7%
[3]
  viability, T/C: 109%
[4]
  viability, T/C: 89.7%
[5]
  viability, T/C: 78.3%
[6]
  viability, T/C: 70.6%
[7]
  viability, T/C: 104%
[8]
  viability, T/C: 96.5%
[9]
  viability, T/C: 91.9%
[10]
  viability, T/C: 82.2%
[11]
  viability, T/C: 79.5%
[12]
  viability, T/C: 78.2%
[13]
  viability, T/C: 114%
[14]
  viability, T/C: 93%
[15]
  viability, T/C: 90%
[16]
  viability, T/C: 88.8%
[17]
  viability, T/C: 82.5%
[18]
  viability, T/C: 74.5%
[19]
  viability, T/C: 104%
[20]
  viability, T/C: 111%
[21]
  viability, T/C: 81.3%
[22]
  viability, T/C: 103%
[23]
  viability, T/C: 69.8%
[24]
  viability, T/C: 88.1%
[25]
  viability, T/C: 88.4%
[26]
  viability, T/C: 94.4%
[27]
  viability, T/C: 127%
[28]
  viability, T/C: 90%
[29]
  viability, T/C: 72.5%
[30]
  viability, T/C: 67.8%
[31]
  viability, T/C: 105%
[32]
  viability, T/C: 112%
[33]
  viability, T/C: 94.8%
[34]
  viability, T/C: 92.7%
[35]
  viability, T/C: 77.3%
[36]
  viability, T/C: 80.7%

## CC(C)n1nc(-c2ccc3oc(N)nc3c2)c2c(N)ncnc21 + CCn1c(-c2cccnc2C(C)OC)c2c3cc(ccc31)N1CCOC(CC(NC(=O)C(C(C)C)N(C)C(=O)C3(F)CCN(C(=O)C#CC(C)(C)N(C)C)CC3)C(=O)N3CCCC(N3)C(=O)OCC(C)(C)C2)C1
Second compound 0.000949 µM
  IC50: > 100 nM
Second compound 0.003 µM
  IC50: > 100 nM
Second compound 0.00949 µM
  IC50: > 100 nM
Second compound 0.03 µM
  IC50: > 100 nM
Second compound 0.0949 µM
  IC50: > 100 nM
Second compound 0.3 µM
  IC50: > 100 nM
Second compound 0.000949 µM, first compound 0.000316 µM
  viability, T/C: 91.5%
Second compound 0.000949 µM, first compound 0.001 µM
  viability, T/C: 112%
[37]
  viability, T/C: 87.1%
[38]
  viability, T/C: 76.9%
[1]
  viability, T/C: 65.7%
[2]
  viability, T/C: 59.7%
Second compound 0.003 µM, first compound 0.000316 µM
  viability, T/C: 84.5%
Second compound 0.003 µM, first compound 0.001 µM
  viability, T/C: 103%
[39]
  viability, T/C: 73.8%
[40]
  viability, T/C: 73.6%
[7]
  viability, T/C: 75.3%
[8]
  viability, T/C: 70.1%
Second compound 0.00949 µM, first compound 0.000316 µM
  viability, T/C: 119%
Second compound 0.00949 µM, first compound 0.001 µM
  viability, T/C: 108%
[41]
  viability, T/C: 98.5%
[42]
  viability, T/C: 80%
[13]
  viability, T/C: 67.8%
[14]
  viability, T/C: 59.1%
Second compound 0.03 µM, first compound 0.000316 µM
  viability, T/C: 110%
Second compound 0.03 µM, first compound 0.001 µM
  viability, T/C: 87.2%
[43]
  viability, T/C: 77.3%
[44]
  viability, T/C: 86%
[19]
  viability, T/C: 66.9%
[20]
  viability, T/C: 50.2%
Second compound 0.0949 µM, first compound 0.000316 µM
  viability, T/C: 100%
Second compound 0.0949 µM, first compound 0.001 µM
  viability, T/C: 117%
[45]
  viability, T/C: 86.9%
[46]
  viability, T/C: 75%
[25]
  viability, T/C: 68.1%
[26]
  viability, T/C: 48.5%
Second compound 0.3 µM, first compound 0.000316 µM
  viability, T/C: 107%
Second compound 0.3 µM, first compound 0.001 µM
  viability, T/C: 89.2%
[47]
  viability, T/C: 96.3%
[48]
  viability, T/C: 73.2%
[31]
  viability, T/C: 71.6%
[32]
  viability, T/C: 57.3%

## CC(Nc1ccc2c(c1)OCCn1cc(N3C(=O)OCC3C(F)F)nc1-2)C(N)=O (stereo not drawn) + CCn1c(-c2cccnc2C(C)OC)c2c3cc(ccc31)N1CCOC(CC(NC(=O)C(C(C)C)N(C)C(=O)C3(F)CCN(C(=O)C#CC(C)(C)N(C)C)CC3)C(=O)N3CCCC(N3)C(=O)OCC(C)(C)C2)C1
Second compound 0.000949 µM
  IC50: > 10000 nM
Second compound 0.003 µM
  IC50: > 10000 nM
Second compound 0.00949 µM
  IC50: > 10000 nM
Second compound 0.03 µM
  IC50: > 10000 nM
Second compound 0.0949 µM
  IC50: > 10000 nM
Second compound 0.3 µM
  IC50: > 10000 nM
[1]
  viability, T/C: 97.3%
[2]
  viability, T/C: 101%
[3]
  viability, T/C: 86.2%
[4]
  viability, T/C: 88.7%
[5]
  viability, T/C: 109%
[6]
  viability, T/C: 80.8%
[7]
  viability, T/C: 99.8%
[8]
  viability, T/C: 97.7%
[9]
  viability, T/C: 86.9%
[10]
  viability, T/C: 94.4%
[11]
  viability, T/C: 97.5%
[12]
  viability, T/C: 78.1%
[13]
  viability, T/C: 118%
[14]
  viability, T/C: 85.9%
[15]
  viability, T/C: 84%
[16]
  viability, T/C: 104%
[17]
  viability, T/C: 86.3%
[18]
  viability, T/C: 76.3%
[19]
  viability, T/C: 83.7%
[20]
  viability, T/C: 83.8%
[21]
  viability, T/C: 86.5%
[22]
  viability, T/C: 98.5%
[23]
  viability, T/C: 110%
[24]
  viability, T/C: 75.2%
[25]
  viability, T/C: 102%
[26]
  viability, T/C: 113%
[27]
  viability, T/C: 78.8%
[28]
  viability, T/C: 88.8%
[29]
  viability, T/C: 96.2%
[30]
  viability, T/C: 74.8%
[31]
  viability, T/C: 84.7%
[32]
  viability, T/C: 85.5%
[33]
  viability, T/C: 96.7%
[34]
  viability, T/C: 98.5%
[35]
  viability, T/C: 92.2%
[36]
  viability, T/C: 82.7%

## O=C(c1ccc(F)c(F)c1Nc1ccc(I)cc1F)N1CC(O)([C@@H]2CCCCN2)C1 + CCn1c(-c2cccnc2C(C)OC)c2c3cc(ccc31)N1CCOC(CC(NC(=O)C(C(C)C)N(C)C(=O)C3(F)CCN(C(=O)C#CC(C)(C)N(C)C)CC3)C(=O)N3CCCC(N3)C(=O)OCC(C)(C)C2)C1
Second compound 0.000949 µM
  IC50: 74.2 nM
Second compound 0.003 µM
  IC50: 125 nM
Second compound 0.00949 µM
  IC50: 93.5 nM
Second compound 0.03 µM
  IC50: 165 nM
Second compound 0.0949 µM
  IC50: 25 nM
Second compound 0.3 µM
  IC50: 73.8 nM
[37]
  viability, T/C: 66.2%
[38]
  viability, T/C: 80.3%
[1]
  viability, T/C: 78.2%
[2]
  viability, T/C: 41.3%
[3]
  viability, T/C: 30.4%
[4]
  viability, T/C: 17.1%
[39]
  viability, T/C: 70.2%
[40]
  viability, T/C: 74.1%
[7]
  viability, T/C: 71.4%
[8]
  viability, T/C: 42.2%
[9]
  viability, T/C: 42.6%
[10]
  viability, T/C: 14.7%
[41]
  viability, T/C: 74.3%
[42]
  viability, T/C: 90%
[13]
  viability, T/C: 48.3%
[14]
  viability, T/C: 59.2%
[15]
  viability, T/C: 29.2%
[16]
  viability, T/C: 22.5%
[43]
  viability, T/C: 82.8%
[44]
  viability, T/C: 75.3%
[19]
  viability, T/C: 70.3%
[20]
  viability, T/C: 56%
[21]
  viability, T/C: 41.6%
[22]
  viability, T/C: 21%
[45]
  viability, T/C: 67.2%
[46]
  viability, T/C: 81.3%
[25]
  viability, T/C: 43.8%
[26]
  viability, T/C: 33.7%
[27]
  viability, T/C: 37.9%
[28]
  viability, T/C: 20.6%
[47]
  viability, T/C: 64.3%
[48]
  viability, T/C: 91.2%
[31]
  viability, T/C: 53.7%
[32]
  viability, T/C: 46.6%
[33]
  viability, T/C: 30.1%
[34]
  viability, T/C: 17.6%
